Measured values taken from publication doi:10.1101/2025.02.17.637997, “Phosphorylation-State Modulated Binding of HSP70: Structural Insights and Compensatory Protein Engineering” (bioRxiv, 2025).
Blank lines part the entries; values can stand above or below the substance they belong to.

Tests used:
CHIP TPR-CC = CHIP TPR-CC (Homo sapiens, UniProt Q9UNE7); assay: Fluorescence polarization, CHIP TPR-CC fragment; format: binding; conditions: FP; Fig. 2C
Text: (§1) A complete list of vectors is listed in Table S1 and deposited at Addgene (pending ID). Plasmids were maintained and propagated in DH5-alpha E. coli and purified using the Miniprep plasmid kit (Qiagen) or Quantum Prep® Plasmid Midiprep Kit (Bio-Rad). We used the Q5 Site-Directed Mutagenesis Kit (NEB) or […] II XL (NC9045762, Agilent Technologies) site-directed mutagenesis kit for editing plasmids and validated via DNA sequencing. Lifetein or Genscript synthesized the peptides used in the study. […] The amino-terminal biotin-labeled HSP70 tail peptide (biotin-[…], termed as biotin-EEVD) and the amino-terminal biotin-labeled pT-HSP70 tail peptide (biotin-GSGSGP(pT)IEEVD, termed as biotin-pEEVD) were purchased (Lifetein). The peptides used for fluorescent polarization were N-FITC-Ahx-[…] (EEVD) or N-FITC-Ahx-GSGP(pT)IEEVD (pEEVD). Recombinant CHIP-TPR constructs were recombinantly expressed using the pHis//2 CHIP-TPR (21–154) plasmid and purified as previously described ([21]) and additional CHIP proteins were purified as previously described ([22]).
(§2) The N-terminally-labelled peptides were loaded into PCR reaction tubes at 2X (40 nM), with the final concentration being 20 nM. Recombinant CHIP constructs were added into the tubes at the indicated concentrations. […] The polarization reads were normalized to the dilution buffer. […]

CHIP TPR-UBOX = assay: Fluorescence polarization, CHIP TPR-UBOX (CC deletion); format: binding; conditions: FP; Fig. 2C
Text: as §1, §2

SmBiT-CHIP-WT [1] = assay: NanoBiT live-cell interaction, HEK-293, SmBiT-CHIP-WT; format: cell-based; conditions: HEK-293, CHIP-WT, luminescence over 20 min, three independent transfections, Fig. 1E
Protocol: (§3) HEK293 and COS-7 cells were acquired from the UNC Lineberger Comprehensive Cancer Center Tissue Culture Facility. Cultures were maintained in Dulbecco’s Modified Eagle Medium with 10% fetal bovine serum at 37 °C and 5% CO2. Using the manufacturers’ instructions, X-tremeGENE 9 was used to transfect cells with plasmid DNA except for NanoBiT constructs, in which case we used Lipofectamine 3000 (Thermo Fisher Scientific). Where indicated, twenty-four hours post-transfection, cells were treated with 20 μM MG-132 (Selleck Chemicals) for 6 h or 100 μM cycloheximide (Sigma-Aldrich) for the stated duration.
(§4) NanoBiT Protein: Protein Interaction System (Promega) was used to measure protein-protein interaction data following the manufacturer’s instructions. As previously described, LgBiT-HSP70 and SmBiT-CHIP construct interactions were used as positive controls ([22]). Twenty-four hours post-transfection, the cells were collected, replated in 96-well clear bottom white-sided tissue culture plates, and maintained at 37 °C and 5% CO2 for 45 min. Nano-Glo Live Cell Reagent (Promega) was added, and luminescence was measured using a CLARIOstar microplate reader over 20 minutes. The total area under the maximum luminescence curve was quantified and used to compare changes in HSP70-CHIP interactions relative to the WT-WT conditions.

SmBiT-CHIP-G132N [2] = assay: NanoBiT live-cell interaction, HEK-293, SmBiT-CHIP-G132N; format: cell-based; conditions: HEK-293, CHIP-G132N, three independent transfections, p = 0.2114 vs. Δ with CHIP-WT, Fig. 1E
Protocol: as §3, §4

SmBiT-CHIP-WT [3] = assay: NanoBiT live-cell interaction, COS-7, SmBiT-CHIP-WT; format: cell-based; conditions: COS-7, CHIP-WT, three independent transfections, Fig. 1F
Protocol: as §3, §4

SmBiT-CHIP-G132N [4] = assay: NanoBiT live-cell interaction, COS-7, SmBiT-CHIP-G132N; format: cell-based; conditions: COS-7, CHIP-G132N, three independent transfections, Fig. 1F
Protocol: as §3, §4

CHIP-WT = target: T1, CHIP-WT (Homo sapiens, UniProt Q9UNE7); assay: Co-immunoprecipitation of HSP70 with CHIP-WT, COS-7; format: cell-based; conditions: Co-IP of MYC-CHIP-WT, vs HSP70-WT and HSP70-T636A, densitometry, Fig. 1I
T1 construct: His; made in house
T1 sequence (Q9UNE7 1-303): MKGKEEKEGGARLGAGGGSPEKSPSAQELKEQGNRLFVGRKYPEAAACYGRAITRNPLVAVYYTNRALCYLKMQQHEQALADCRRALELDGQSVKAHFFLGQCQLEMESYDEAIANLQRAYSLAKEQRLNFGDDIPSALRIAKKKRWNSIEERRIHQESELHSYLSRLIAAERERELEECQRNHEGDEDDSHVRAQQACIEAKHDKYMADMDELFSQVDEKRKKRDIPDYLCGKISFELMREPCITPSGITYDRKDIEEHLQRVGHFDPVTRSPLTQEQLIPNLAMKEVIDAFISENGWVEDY
Protocol: (§5) Samples were collected in a lysis buffer composed of 50 mM Tris-HCl (pH 7.4), 150 mM NaCl, 2 mM EDTA, and 1% Triton X-100, supplemented with 1X Halt protease and phosphatase inhibitor (Thermo Scientific). The samples were then sonicated and combined with Laemmli sample buffer (Bio-Rad). The lysates were resolved on 4–15% TGX Stain-Free gels (Bio-Rad) and transferred to PVDF membranes (Bio-Rad). The membranes were blocked in 5% milk and incubated with primary antibodies (Table S3) overnight at 4°C. Following this, HRP-conjugated secondary antibodies (Cell Signaling Technology) were applied. Detection was performed using Lumigen ECL Ultra (Lumigen, tma-100), and the blots were imaged with the ChemiDoc Imaging System (BioRad).
Ezview™ Red Anti-c-Myc Affinity Gel Beads (Sigma-Aldrich) were used for co-immunoprecipitation of myc-tagged proteins. Proteins were eluted via boiling before western blot analysis.

[5] = system: HSP70 steady-state levels in COS-7 cells; assay: Cycloheximide chase of HSP70 steady-state levels, COS-7; format: cell-based
Protocol: as §3, §5

[6] = system: HSP70 steady-state levels in HEK-293 cells; assay: Cycloheximide chase of HSP70 steady-state levels, HEK-293; format: cell-based; conditions: Flag immunoblot, representative, Fig. S1
Protocol: as §3, §5

HEK-293 cells = conditions: HEK-293, electrical impedance; ref [16]; cited from earlier work
CHIP-WT or CHIP-G132N = assay: Fluorescence polarization, phosphorylated vs unmodified EEVD peptide; format: binding; conditions: FP, CHIP-WT or CHIP-G132N (Fig. 2B)
Text: as §1, §2

[7] = target: T2, CHIP TPR (residues 21–154) (Homo sapiens, UniProt Q9UNE7); assay: Biolayer interferometry, CHIP TPR (21-154); format: binding; conditions: BLI; pEEVD vs EEVD; Fig. 2E
T2 construct: the extended TPR domain of CHIP (residues 21–154) using BLI; His; made in house
Text: as §1
Bio-layer interferometry measured peptide binding using a BLItz instrument (FortéBio, Sartorius) with streptavidin (SA) sensors. […] Affinities (Kd) were calculated by the BLItz Pro software as Kd=koff/kon, where koff and kon were determined by individual fits to the “dissociation step” and “association step,” respectively, for each run.

CHIP-G132N = target: T3, CHIP-G132N (Homo sapiens, UniProt Q9UNE7, G132N); assay: Biolayer interferometry, CHIP-G132N TPR; format: binding; conditions: BLI; kon; CHIP-G132N TPR towards pEEVD; Fig. S2
T3 construct: Recombinant CHIP-TPR constructs were recombinantly expressed using the pHis//2 CHIP-TPR (21–154) plasmid; His; made in house
T3 sequence (Q9UNE7 21-154 G132N): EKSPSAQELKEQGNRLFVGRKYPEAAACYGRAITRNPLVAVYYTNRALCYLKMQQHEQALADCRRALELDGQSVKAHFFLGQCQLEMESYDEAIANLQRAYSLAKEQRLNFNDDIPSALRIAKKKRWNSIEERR
Protocol: Bio-layer interferometry measured peptide binding using a BLItz instrument (FortéBio, Sartorius) with streptavidin (SA) sensors. Biotin-EEVD and biotin-pEEVD were solubilized in 20 mM HEPES, 150 mM NaCl, pH 7.0. Affinity measurements were made using the advanced kinetic protocol within the BLItz Pro system software. Biosensors were hydrated for ten minutes in assay buffer comprising 20 mM HEPES, 150 mM NaCl, 5 mM β-mercaptoethanol, pH 7.2. For each affinity measurement, a new, hydrated biosensor was placed on the BLItz tip, and the “Initial Baseline” step was completed by incubation for 30 seconds in 500 μl assay buffer in an opaque black microcentrifuge tube (Argos Technologies). Peptides were loaded during the “Loading Step” by incubating the tip in 4 μl of either peptide for 60 seconds. The “Baseline step” was then conducted by incubation for 30 seconds in 500 μl assay buffer in an opaque black microcentrifuge tube. The “Association step” was performed by incubating the tip in 4 μl of the appropriate TPR protein construct, at protein concentrations of 1 to 25 μM, in assay buffer in an opaque black microcentrifuge tube for 120 seconds. […] Affinities (Kd) were calculated by the BLItz Pro software as Kd=koff/kon, where koff and kon were determined by individual fits to the “dissociation step” and “association step,” respectively, for each run.

EEVD tail interaction, effect of the coiled-coil domain (CHIP TPR-CC): minimal change
Substance: N-FITC-Ahx-GSGPTIEEVD [unphosphorylated HSP70 tail peptide used for fluorescent polarization]
EEVD tail peptide interaction with U-box moved closer to TPR (CHIP TPR-UBOX): eliminated EEVD tail peptide interactions

reduction of HSP70 co-precipitated by CHIP-WT (CHIP-WT): over 90%
Substance: HSP70-T636D: phospho-mimetic version of HSP70
decrease in luminescence compared to HSP70-T636A (SmBiT-CHIP-WT [1]): 42% | decrease in luminescence compared to HSP70-T636A (SmBiT-CHIP-G132N [2]): 57% | Δ luminescence comparing HSP70-T636D to HSP70-T636A (SmBiT-CHIP-WT [3]): −85% | Δ luminescence comparing HSP70-T636D to HSP70-T636A (SmBiT-CHIP-G132N [4]): −66% | loss of HSP70 steady-state level after inhibiting translation ([5]; cycloheximide 100 μM, six hours, change from time 0, representative immunoblot, Fig. 1J): 76% | HSP70 steady-state level after cycloheximide ([5]; cycloheximide, six hours, compared to HSP70-WT and HSP70-T636A, Fig. 1J): more robust decreases | HSP70 steady-state level with proteasome inhibitor ([5]; with MG-132, Fig. 1J): recovery of protein levels | percent change of HSP70 level from time 0 ([6]; cycloheximide +MG132, 6 h (column from layout)): +98% | percent change of HSP70 level from time 0 ([6]; cycloheximide, 6 h, without MG132 (column from layout)): -80% | effect on cell growth / proliferation (HEK-293 cells): no effect

decrease in binding affinity of CHIP TPR towards the phosphorylated EEVD tail [7]: ~10 fold | association rate (CHIP-G132N): higher association rates
Substance: N-FITC-Ahx-GSGP(pT)IEEVD [pEEVD, phosphorylated HSP70 tail peptide used for fluorescent polarization]
decrease in interaction compared to the unmodified threonine (CHIP-WT or CHIP-G132N): 6–10 fold
